Data reported in patent publication US20070099250A1, “Methods for treating proliferative diseases and for monitoring the effectiveness of treatment of proliferative diseases” (priority 2003, published 2007).

Legend:
[1] = tested on: OP18 Ser25 phosphorylation; experiment: Western blot analysis of Raf-inhibitor-treated HCT116 cell lysates, phospho-Ser25 specific OP18 antibody; type: cell-based, human
Description: HCT1 16 cells are prepared. as in Example 1 above and treated with a Raf inhibitor (BPMI) for 1.5 hr. Cells are lysed in Incomplete Laemmli buffer (0.1 IM Tris.Cl pH 7.0, 4% SDS, 10% glycerol), and passed through a syringe fitted with 25 gauge needle to break apart genomic DNA. The lysate is boiled for 5 minutes, and loaded onto 10% SDS-PAGE gel. Proteins in the SDS-PAGE gel are then transferred to nitrocellulose membrane. The membrane is blocked with 5% milk for 1 hr, and incubated with the an antibody specific for Ser^25 phosphorylated OP18 for an additional hour. The phosphor-Ser^25 specific OP18 antibody is raised in rabbit using standard techniques and purification known in the art. The amino acid sequence used to generate phosphor-Ser^25 specific OP18 antibody is ELILpSPRSKESVPEFP (SEQ ID NO:_). The blot is washed three times with TBST 15 minutes each, and then incubated with anti-rabbit HRP-conjugated antibody for 1 hr. The blot is washed three times with TBST 15 minutes each, and the antibody bound proteins are labeled using SuperSignal West Dura Extended Duration substrate (Piece Biotechnologies, Rockford, Ill.). The phosphorylated OP18 proteins are detected via exposing the blot through a film (Eastman Kodak, Rochester, N.Y.).
(§1) The treatment of HCT116 cells with BPMI leads to the inhibition of OP18 phosphorylation at Ser^25 residue (data not shown). […] Additional data also provides that BPMI inhibits OP18 Ser^25 phosphorylation with an IC50 of approximately 5 μM. Thus, it appears that both MAPK and OP18 Ser^25 phosphorylation are inhibited at a similar level for a given dose of a raf inhibitor.

[2] = tested on: MAPK pathway in HCT116 cells; experiment: Inhibition of MAPK pathway in HCT116 cells; type: cell-based, human
Description: as §1

[3] = tested on: Epithelial-cadherin (mouse/human); experiment: Inverse labeling-MS analysis of DU145 tumor tissue lysates, mouse tumor xenograft, in vivo BPMI; settings: 1 hour BPMI treatment, 200 mg/kg p.o., phosphopeptide MRDWVIPPIpSCPENEK
Description: (§2) The phosphoproteome mapping method is further tested/applied to an in vivo study of the Raf inhibitor, BPMI (one-hour treatment, 200 mg/kg p.o.), in the analysis of tissue lysates of mouse tumor xenograft.
(§3) The methyl esterification/IMAC procedure is successful in removing the blood contamination from the tissue samples. […] Additional changes in phosphorylation are also detected which includes oncogene EMS1, mouse fetuin and Epithelial-cadherin (see Table 2).

Mouse fetuin = experiment: as above; settings: 1 hour BPMI treatment, 200 mg/kg p.o., phosphopeptide VoxMHTQCHSTPDpSAEDVR
Description: as §2, §3

Oncogene EMS1 [4] = experiment: as above; settings: 1 hour BPMI treatment, 200 mg/kg p.o.
Description: as §2, §3

Oncoprotein 18 [5] = experiment: as above; settings: for Change (treated/control) in phosphorylation / Change in phosphorylation, % down: DU145 tumor tissue, 1 hour BPMI treatment, 200 mg/kg p.o.
Description: as §2, §3

Oncogene EMS1 [6] = experiment: Inverse labeling-MS phosphopeptide analysis of HCT116 cell lysate treated with BPMI; type: cell-based, human; settings: HCT116 cells, 20 μM BPMI, 1.5 hours
Description: (§4) Human colorectal cell line HCT116 cells are grown in 6-well plates. Prior to harvesting, the cells are treated with 20 μM of the Raf inhibitor BPMI and DMSO control for 1.5 hours, respectively. Cells are then rinsed with PBS, and lysed for 5 minutes at 4° C. in Doriano lysis buffer with 100 μg/mL Perfabloc/2 μg/mL aprotinin/2 μg/mL leupeptin/1 mM NaVO4/10 mM NaF. The supernatant of the lysates are collected after centrifugation at 3,000 rpm for 5 minutes. The protein concentration is determined using Bio-Rad reagent, and the lysates are frozen at −80° C. prior to fkrther processing and analysis.
(§5) One μL of RNase A (20 mg/mL, Sigma, St Louis, Mo.) and 1 μL of RNase T1 (10 units/mL, Invitrogen, Carlsbad, Calif.) are added to each 1 mL of lysates (total 3 mg of HCT116-DMSO control and 3 mg of HCT116-BPMI, respectively), and incubated at 37° C. for half an hour to degrade RNAs. Proteins are denatured using 6 M guanidine HCl, followed by reduction with 20 mM 1,4-dithio-DL-threitol (DTT) at 58° C. for 40 minutes and alkylation with 40 mM iodoacetamide at room temperature for 30 minutes in the dark. Each protein solution is transferred to a Slide-A-Lyzer (10,000 MW cutoff, Pierce, Rockford, IL) dialysis cassette and dialyzed against 2 to 0 M urea/50 mM ammonium bicarbonate to remove small molecule impurities and buffer exchange to 50 mM ammonium bicarbonate. Proteolysis is carried out using modified, sequencing grade trypsin (Promega, Madison, Wiss.) at a 1:200 trypsin-to-protein ratio (wt:wt) in 50 mM ammonium bicarbonate at 37° C. overnight.
(§6) The peptide digests are filtered through Centricon Filters (10,000 MW cutoff, Millipore, Bedford, Mass.) to remove large molecule impurities including detergents. Flow-through (peptides) is collected. Solvent and ammonium bicarbonate are subsequently removed by SpeedVac drying.
(§7) d0- or d3-methanolic HCl (2M) (methyl esterification reagent) is prepared by adding 160 μL of acetyl chloride to 1 niL of anhydrous d0-methyl alcohol or d3-methyl d-alcohol drop wise while stirring. After 10 minutes, 1 mL of the methyl esterification reagent is added to 1.5 mg of lyophilized peptide mixture. The reaction is performed in parallel to two identical aliquots for every sample, one using d0-reagent and one using d3-reagent, respectively. The reaction is allowed to proceed at room temperature for 30 minutes. The excess reagents are removed by SpeedVac drying. Subsequently the peptide mixtures are reconstituted with water. The inverse labeling is achieved by mixing d0-control with d3-treated (BPMI) and d3-control with d0-treated.
(§8) Enrichment of phosphopeptides is performed on a 2.1×30 mm IMAC column (POROS 20 MC, Applied Biosystems, Foster City, Calif.). Briefly, the column is washed with water, 100 mM EDTA in 1 M NaCl, followed by water and 1% acetic acid. The column is then activated with 100 mM FeCl3. […] of the inversely labeled methyl esterified peptide mixture (500 μg each form of d0 and d3) is dissolved in 1% acetic acid in 50% acetonitrile/water, and loaded onto iron-activated IMAC column. The unbound peptides are removed by washing with 1% acetic acid in 50% acetonitrile/water. The bound phosphopeptides are eluted with 2% ammonium hydroxide in 50% acetonitrile/water (pH approximately 9 to 10). Acetic acid is added to neutralize the eluent prior to SpeedVac drying. The phosphopeptide mixture is reconstituted with 0.1% formic acid and analyzed using capillary LC/MS, as described below.
(§9) An Ultimate capillary/nano HPLC system (LC Packings, San Francisco, Calif.) with a Swichos micro column-switching module (LC Packings, San Francisco, Calif.) is used for analysis. Separation is carried out on a 0.18×150 mm capillary column, packed with 3 μm C18 stationary phase of 300-Å pore size (PepMap, LC Packings, San Francisco, Calif.), operating at a flow rate of 2 μL/min. Mobile phase A consists of 0.1% (v/v) formic acid in water and mobile phase B of 0.1% (v/v) formic acid in acetonitrile. […]

Oncoprotein 18 [7] = experiment: as above; type: cell-based, human; settings: for Change (treated/control) in phosphorylation / Change in phosphorylation, % down: HCT116 cells, 20 μM BPMI, 1.5 hours
Description: as §4, §5, §6, §7, §8, §9

[8] = tested on: Heat-shock 110 kD protein; experiment: as above; type: cell-based, human; settings: HCT116 cells, 20 μM BPMI, 1.5 hours; phosphopeptide IEpSPKLER
Description: as §4, §5, §6, §7, §8, §9

[9] = phosphopeptide LPS*pSPVYEDAASFK
[10] = phosphopeptide T*QpTPPVpSPAPQPTEER

Structure (SMILES): CC(C)(C)c1ccc(Nc2ncc(Cc3ccncc3)c3ccccc23)cc1 [BPMI, 1-(4-t-butylanilino)-4-[(pyridin-4-yl)-methyl]-isoguinoline]
- OP18 phosphorylation at Ser25 residue, Western blot ([1]; HCT116 cells, 1.5 hr treatment (data not shown)): inhibition
- Phosphorylation seen at Ser25 residue of the OP18 protein, Western blot ([1]; HCT116 cells, at 10 μM): almost no phosphorylation
- IC50 ([1]; additional data, read-out: IC50 for inhibition of OP18 Ser25 phosphorylation): ~5 µM
- IC50 [2]: 5.3 µM
- Change (treated/control) in phosphorylation [3]: 0.5
- Change in phosphorylation, % down [3]: (50% down)
- Change (treated/control) in phosphorylation (Mouse fetuin): 0.6
- Change in phosphorylation, % down (Mouse fetuin): (40% down)
- Change (treated/control) in phosphorylation (Oncogene EMS1 [4]; [9]): 0.7
- Change in phosphorylation, % down (Oncogene EMS1 [4]; [9]): (30% down)
- Change (treated/control) in phosphorylation (Oncogene EMS1 [4]; [10]): 0.6
- Change in phosphorylation, % down (Oncogene EMS1 [4]; [10]): (40% down)
- Change (treated/control) in phosphorylation (Oncoprotein 18 [5]; phosphopeptide ASGQAFELILpSPR): 0.4
- Change in phosphorylation, % down (Oncoprotein 18 [5]; phosphopeptide ASGQAFELILpSPR): (60% down)
- Change (treated/control) in phosphorylation (Oncoprotein 18 [5]; phosphopeptide SKESVPEFPLpSPPK): 0.8
- Change in phosphorylation, % down (Oncoprotein 18 [5]; phosphopeptide SKESVPEFPLpSPPK): (20% down)
- OP18 Ser25 phosphorylation in vivo (FIG. 2B) (Oncoprotein 18 [5]; tumor tissue DU145, methyl esterification/IMAC): down-regulation
- Change (treated/control) in phosphorylation (Oncogene EMS1 [6]; [9]): 0.8
- Change in phosphorylation, % down (Oncogene EMS1 [6]; [9]): (20% down)
- Change (treated/control) in phosphorylation (Oncogene EMS1 [6]; [10]): 0.7
- Change in phosphorylation, % down (Oncogene EMS1 [6]; [10]): (30% down)
- Op18 Ser25 phosphorylation upon BPMI treatment (FIG. 1) (Oncoprotein 18 [7]; HCT116 cell lysate, inverse labeling-MS): Down-regulation
- Change (treated/control) in phosphorylation (Oncoprotein 18 [7]; phosphopeptide ASGQAFELILpSPR): 0.4
- Change in phosphorylation, % down (Oncoprotein 18 [7]; phosphopeptide ASGQAFELILpSPR): (60% down)
- Change (treated/control) in phosphorylation (Oncoprotein 18 [7]; phosphopeptide SKESVPEFPLpSPPK): 0.6
- Change in phosphorylation, % down (Oncoprotein 18 [7]; phosphopeptide SKESVPEFPLpSPPK): (40% down)
- Change (treated/control) in phosphorylation [8]: 0.7
- Change in phosphorylation, % down [8]: (30% down)
